Data as given in US20130324606A1, “Ester Derivatives of Bimatoprost Compositions and Methods” (ALLERGAN, INC., priority 2011, published 2013).

Columns and labels:
[1] = test system: reconstructed human epidermis (RHE); test: In vitro dermal irritation screening in reconstructed human epidermis; format: cell-based; details: concentration 0.03%, Formulation A vehicle
Method: In vitro irritation screening assays were conducted for compounds described herein. Test system was the reconstructed human epidermis (RHE), as known in the art. Single dosing was employed, and endpoints were evaluated as a function of time up to 24-hrs. Endpoints were tissue viability and IL-1α release.
Test compounds included Cmpds IVa (0.03%), IIIb (0.03%), IVb (0.03%), bimatoprost (0.03%), minoxidil (5%, foam), and minoxidil (5%, solution). Administration of Cmpds IVa, IIIb, IVb and bimatoprost employed the vehicle of Formulation A. See Table 1 above. Administration of minoxidil employed minoxidil vehicle with formulation 20% H2O, 50% propylene glycol, and 30% ethanol.

[2] = Partitioning in artificial sebum; format: physicochemical
Method: Compounds bimatoprost, Cmpd IVa, and Cmpd IIIb were added to aqueous solution (1 mL, 2-20 ug/mL), with and without 1-20 mg artificial sebum. Samples were shaken for 16 hr at 37° C. Samples were then centrifuged (8000 RPM) for 15 min at room temperature, prior to collection of the aqueous solution. Samples were analyzed for concentration of compound without artificial sebum (i.e., Co) and with artificial sebum (i.e., Ci) by mass spectroscopy. Artificial sebum and water partition coefficient (Ksebum) was expressed as the concentration of drug in 1 g of artificial sebum divided by the concentration of drug in 1 g of aqueous solution, and was calculated as Ksebum=(Co−Ci)Waqueous/(Ci×Wsebum) (Eqn. 1), where W represents weight.
Artificial sebum was prepared as follows: 15% (w/w) squalene, 15% spermaceti, 10% coconut oil, 1.5% oleic acid, 5% palmitic acid, 2.4% cholesterol oleate, 10% paraffin wax, 10% olive oil, 25% cottonseed oil, 5% palmitoleic acid, 1.2% cholesterol. The melting point of the semi-liquid was 37° C.

Structure (SMILES): CCNC(=O)CCC/C=C\C[C@@H]1[C@@H](/C=C/[C@H](CCc2ccccc2)OC(C)=O)[C@H](O)C[C@@H]1O [Cmpd IVa, 15-acetyl-bimatoprost]
- potential for irritation of the human skin [1]: no indication of potential for irritation
- phase in which the majority of compound remains ([2]; artificial sebum / aqueous solution): remain in the aqueous phase
- Ave. Ksebum (artificial sebum and water partition coefficient) ([2]; n = 4, 16 hr at 37° C.): 5.1
